Test results reported in PMC10870114 (Clinical Cancer Research, 2023).

Assay: Plasma pharmacokinetics on fraction day
Assay type: in vivo, human
Settings: plasma, patients given peposertib

Average exposure proportion compared with peposertib, AUC: < 25% | Average exposure proportion compared with peposertib, Cmax: < 16%
Compound: Oc1ccc(C(O)c2cc(-c3ncnc4cc(N5CCOCC5)ccc34)c(F)cc2Cl)nn1 (centres unmarked) [M467]
